From patent publication US20250282768A1 (Janssen Pharmaceutica NV, priority 2022, published 2025)

Test system: p-IKKa levels in L363 (NIK translocated multiple myeloma) cells
Test: Assay 2: Effect of compounds on p-IKKa levels in L363 (NIK translocated multiple myeloma) cells
Type: cell-based
Details: Homo sapiens, L-363, 6 h, read-out: Assay 2 IC50 (nM), p-IKKa (Ser 176/180) in BAFF stimulated L363 cells with MG132, 6 h; average if tested more than once
Procedure, shortened: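 L363 cells incubated overnight ± 250 ng/ml BAFF, then 6 h at 37 °C with compound (0.3% DMSO) ± 10 μM MG132. Lysates assayed for p-IKKa (Ser176/180) by AlphaLISA SureFire. IC50 from sigmoidal fit of % inhibition normalized to BAFF/MG132-stimulated and unstimulated controls.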

SMILES | IC50
CN1CC[C@@](O)(c2cc(-c3cccc(-c4ccnc(Nc5cnc6cccnn56)n4)n3)no2)C1=O [Example 218, (R)-3-Hydroxy-3-(3-(6-(2-(imidazo[1,2-b]pyridazin-3-ylamino)pyrimidin-4-yl)pyridin-2-yl)isoxazol-5-yl)-1-methylpyrrolidin-2-one] | > 500 nM
C[C@H](O)[C@@H](Nc1nccc(-c2cccc(-c3cc([C@]4(O)CCN(C)C4=O)on3)n2)n1)c1ccccc1 [Example 158, (R)-3-Hydroxy-3-(3-(6-(2-(((1 S,2S)-2-hydroxy-1-phenylpropyl)amino)pyrimidin-4-yl)pyridin-2-yl)isoxazol-5-yl)-1-methylpyrrolidin-2-one] | > 500 nM
Cc1nn(C2CCN(C)CC2)cc1Nc1nccc(-c2cccc(-c3cc([C@]4(O)CCN(C)C4=O)on3)n2)n1 [Example 252] | 50 to 500 nM
CCn1cc(Nc2nccc(-c3cccc(-c4cc([C@]5(O)CCN(C)C5=O)no4)n3)n2)cn1 [Example 91, (R)-3-(5-(6-(2-((1-Ethyl-1H-pyrazol-4-yl)amino)pyrimidin-4-yl)pyridin-2-yl)isoxazol-3-yl)-3-hydroxy-1-methylpyrrolidin-2-one] | < 50 nM
COc1nn(CC(F)F)cc1Nc1nccc(-c2cccc(-n3cc([C@]4(O)CCN(C)C4=O)nn3)n2)n1 [Example 122, (R)-3-(1-(6-(2-((1-(2,2-Difluoroethyl)-3-methoxy-1H-pyrazol-4-yl)amino)pyrimidin-4-yl)pyridin-2-yl)-1H-1,2,3-triazol-4-yl)-3-hydroxy-1-methylpyrrolidin-2-one] | < 50 nM
CCC(Nc1nccc(-c2cccc(-c3cc([C@]4(O)CCN(C)C4=O)on3)n2)n1)c1ccn(C)n1 (stereo partly drawn) [Example 389, (3R)-3-Hydroxy-1-methyl-3-(3-(6-(2-((1-(1-methyl-1H-pyrazol-3-yl)propyl)amino)pyrimidin-4-yl)pyridin-2-yl)isoxazol-5-yl)pyrrolidin-2-one] | 50 to 500 nM
COc1nn(CC(F)F)cc1Nc1nccc(-c2cccc(-c3cc([C@@]4(O)CCN(C)C4=O)n[nH]3)n2)n1 (single isomer, unassigned) [Example 189, (*R)-3-(5-(6-(2-((1-(2,2-Difluoroethyl)-3-methoxy-1H-pyrazol-4-yl)amino)pyrimidin-4-yl)pyridin-2-yl)-1H-pyrazol-3-yl)-3-hydroxy-1-methylpyrrolidin-2-one] | < 50 nM
CC(Nc1nccc(-c2cccc(-c3cc([C@]4(O)CCN(C)C4=O)on3)n2)n1)c1nnc2ncccn12 (stereo partly drawn) [Example 395, (3R)-3-(3-(6-(2-((1-([1,2,4]Triazolo[4,3-a]pyrimidin-3-yl)ethyl)amino)pyrimidin-4-yl)pyridin-2-yl)isoxazol-5-yl)-3-hydroxy-1-methylpyrrolidin-2-one] | 50 to 500 nM
Cc1noc(C)c1Nc1nccc(-c2cccc(-c3cc([C@]4(O)CCN(C)C4=O)on3)n2)n1 [Example 236, (R)-3-(3-(6-(2-((3,5-Dimethylisoxazol-4-yl)amino)pyrimidin-4-yl)pyridin-2-yl)isoxazol-5-yl)-3-hydroxy-1-methylpyrrolidin-2-one] | 50 to 500 nM
Cc1ncc(C#N)cc1Nc1nccc(-c2cccc(-c3cc([C@]4(O)CCN(C)C4=O)on3)n2)n1 [Example 471, (R)-5-((4-(6-(5-(3-Hydroxy-1-methyl-2-oxopyrrolidin-3-yl)isoxazol-3-yl)pyridin-2-yl)pyrimidin-2-yl)amino)-6-methylnicotinonitrile] | < 50 nM
Cc1cc(Nc2nccc(-c3cccc(-c4cc([C@]5(O)CCN(C)C5=O)on4)n3)n2)c(F)cn1 [Example 293, (R)-3-(3-(6-(2-((5-Fluoro-2-methylpyridin-4-yl)amino)pyrimidin-4-yl)pyridin-2-yl)isoxazol-5-yl)-3-hydroxy-1-methylpyrrolidin-2-one] | < 50 nM
C[C@H](Nc1nccc(-c2cccc(-c3cc([C@]4(O)CCN(C)C4=O)on3)n2)n1)c1cnn(C)c1 (single isomer, unassigned) [Example 70] | > 500 nM
